# From patent US20120107317A1, “USE OF CYTOPLASMIC C-MYC FOR REGULATING IMMUNE RESPONSES” (priority 2010, published 2012)
# Read-outs that look alike come from different tables or passages of the source.
# B1: ERK1 (member of ERK1/2, endogenous protein of primary human blood macrophages) (enzyme, UniProt P27361 2-379, looked up)
# chain: AAAAAQGGGGGEPRRTEGVGPGVPGEVEMVKGQPFDVGPRYTQLQYIGEGAYGMVSSAYDHVRKTRVAIKKISPFEHQTYCQRTLREIQILLRFRHENVIGIRDILRASTLEAMRDVYIVQDLMETDLYKLLKSQQLSNDHICYFLYQILRGLKYIHSANVLHRDLKPSNLLINTTCDLKICDFGLARIADPEHDHTGFLTEYVATRWYRAPEIMLNSKGYTKSIDIWSVGCILAEMLSNRPIFPGKHYLDQLNHILGILGSPSQEDLNCIINMKARNYLQSLPSKTKVAWAKLFPKSDSKALDLLDRMLTFNPNKRITVEEALAHPYLEQYYDPTDEPVAEEPFTFAMELDDLPKERLKELIFQETARFQPGVLEAP
# notes: It is split here into its two members
# B2: HIV-1 Tat: HIV-1 Tat protein used to treat primary human blood macrophages (protein, UniProt P04608 1-86, looked up)
# Protein Tat: MEPVDPRLEPWKHPGSQPKTACTNCYCKKCCFHCQVCFITKALGISYGRKKRRQRRRAHQNSQTHQASLSKQPTSQPRGDPTGPKE
# Columns and labels:
# [1] = system: BCG-induced c-Myc mRNA expression; format: cell-based, human; details: then BCG (M.O.I.=1) 3 hours, vs DMSO
# c-Myc [2] = details: cited from earlier work
# [3] = molecular target: T1, c-Myc (endogenous protein of primary human blood macrophages) (human, UniProt P01106 16-454); experiment: co-immunoprecipitation with anti-c-Myc antibody from PBMac lysates, Western blot
# T1 construct: Endogenous c-Myc in lysates of primary human blood macrophages (PBMac), with or without BCG treatment; also called cytoplasmic c-Myc
# T1 sequence (P01106 16-454 limits assumed): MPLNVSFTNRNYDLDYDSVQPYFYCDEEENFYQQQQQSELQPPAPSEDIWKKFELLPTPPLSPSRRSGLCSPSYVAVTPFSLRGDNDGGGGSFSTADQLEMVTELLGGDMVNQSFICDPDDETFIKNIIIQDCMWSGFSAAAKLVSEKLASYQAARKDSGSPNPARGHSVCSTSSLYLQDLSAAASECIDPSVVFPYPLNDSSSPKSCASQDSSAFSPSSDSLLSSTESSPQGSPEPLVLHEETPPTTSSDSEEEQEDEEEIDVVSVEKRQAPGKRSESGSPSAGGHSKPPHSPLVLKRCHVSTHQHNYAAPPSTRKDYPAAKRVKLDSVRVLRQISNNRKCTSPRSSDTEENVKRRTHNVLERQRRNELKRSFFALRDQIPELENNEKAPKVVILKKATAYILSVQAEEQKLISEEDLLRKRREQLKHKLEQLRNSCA
# Experimental: Total proteins (200 μg) were extracted from PBMac by IP buffer (10 mM Tris [pH7.4], 1 mM EDTA, 1 mM EGTA, 150 mM NaCl, 0.5% NP-40, 1% Triton X-100, inhibitor cocktails of proteases and phosphatases), and were incubated with 1μg primary antibodies against IκBα(Santa Cruz Biotechnology, USA) or c-Myc (Millipore, USA) for 2 hours at 4° C. and then with 20 μl Protein A/G agarose beads (Santa Cruz Biotechnology, USA) for 1 hour at 4° C. The immunoprecipitates were then washed 6 times with IP buffer. Cytoplasmic and nuclear proteins were extracted from PBMac as previously described (Cheung et al., 2005; Lee et al., 2005). Immunoprecipitated, cytoplasmic (50 μg) or nuclear proteins (10 μg) were analyzed by Western Blot as in our previous reports (Cheung et al., 2005; Lee et al., 2005).
# c-Myc [4] = experiment: Induction of c-Myc expression by HIV-1 Tat in primary human blood macrophages (RT-PCR, Western blot); format: cell-based; details: Tat 2, 4 or 6 hours (mRNA); 20 or 100 ng/ml 24 hours (protein)
# Experimental: Briefly, PBMac were treated with or without Tat ([…]) for indicated time points (2, 4 or 6 hours). Total RNA was extracted for analyzing c-Myc mRNA expression levels by quantitative RT-PCR. In addition, PBMac were treated with HIV-1 Tat (20 or 100 ng/ml) for 24 hours. Cellular proteins were extracted for Western blot analyses to determine protein levels of c-Myc and actin. The level of actin was measured as a control of the amount of proteins loaded.
# [5] = 10 μM inhibitor 1 hour pretreatment
molecule,measurement,setting,value
O=C(/C=C/c1ccc(O)c(O)c1)OCCc1ccccc1 [CAPE],level of BCG-induced c-Myc mRNA expression,[1]; 15 μg/ml inhibitor 1 hour pretreatment,did not affect
C[n+]1ccc(-c2c3nc(c(-c4cc[n+](C)cc4)c4ccc([nH]4)c(-c4cc[n+](C)cc4)c4ccc([nH]4)c(-c4cc[n+](C)cc4)c4nc2C=C4)C=C3)cc1 [Cationic Porphyrin TMPyP4],expression and activity of c-Myc,c-Myc [2],inhibit both the expression and activity of c-Myc
COc1cccc(-c2cc(=O)c3ccccc3o2)c1N [PD98059],level of BCG-induced c-Myc mRNA expression,[1]; [5],significantly reduced
C[S+]([O-])c1ccc(-c2nc(-c3ccncc3)c(-c3ccc(F)cc3)[nH]2)cc1 (stereo not shown) [SB203580],level of BCG-induced c-Myc mRNA expression,[1]; [5],did not affect
O=C1c2ccccc2-c2n[nH]c3cccc1c23 [SP600159],level of BCG-induced c-Myc mRNA expression,[1]; [5],significantly reduced
B1,binding result,[3],no binding
B2,c-Myc expression (mRNA and protein),c-Myc [4],induces c-Myc expression
